Experimental data taken from PubChem BioAssay (NCI).
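96-well plates; 48 h exposure; 5 concentrations. Endpoints by linear interpolation between flanking doses. Not reached: highest tested concentration assigned. TGI denotes the concentration required for complete inhibition of growth.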

What was measured:
Test in all cases: inhibition of tumour cell growth, NCI panel, 48 h
OVCAR-8 ovarian = tested on: OVCAR-8 ovarian
KM12 colon = tested on: KM12 colon
EKVX NSCLC = tested on: EKVX NSCLC
IGROV1 ovarian = tested on: IGROV1 ovarian
MALME-3M melanoma = tested on: MALME-3M melanoma
SK-MEL-5 melanoma = tested on: SK-MEL-5 melanoma
LOX IMVI melanoma = tested on: LOX IMVI melanoma
HCT-15 colon = tested on: HCT-15 colon
NCI-H522 lung = tested on: NCI-H522 lung
HCC-2998 colon = tested on: HCC-2998 colon
HL-60(TB) leukemia = tested on: HL-60(TB) leukemia
SN12C renal = tested on: SN12C renal
U251 CNS = tested on: U251 CNS
MDA-N = tested on: MDA-N
SK-MEL-2 melanoma = tested on: SK-MEL-2 melanoma
DU-145 prostate = tested on: DU-145 prostate
UACC-257 melanoma = tested on: UACC-257 melanoma
COLO 205 colon = tested on: COLO 205 colon
M14 melanoma = tested on: M14 melanoma
OVCAR-4 ovarian = tested on: OVCAR-4 ovarian
NCI-H23 lung = tested on: NCI-H23 lung
CCRF-CEM leukemia = tested on: CCRF-CEM leukemia
OVCAR-3 ovarian = tested on: OVCAR-3 ovarian
ACHN renal = tested on: ACHN renal
HOP-62 NSCLC = tested on: HOP-62 NSCLC
NCI-H226 lung = tested on: NCI-H226 lung
SNB-75 CNS = tested on: SNB-75 CNS
K-562 leukemia = tested on: K-562 leukemia
HS 578T breast = tested on: HS 578T breast
SR leukemia = tested on: SR leukemia
SK-OV-3 ovarian = tested on: SK-OV-3 ovarian
SW-620 colon = tested on: SW-620 colon
RPMI-8226 leukemia = tested on: RPMI-8226 leukemia
SK-MEL-28 melanoma = tested on: SK-MEL-28 melanoma
PC-3 prostate = tested on: PC-3 prostate
TK-10 renal = tested on: TK-10 renal
SF-295 CNS = tested on: SF-295 CNS
UO-31 renal = tested on: UO-31 renal
A498 renal = tested on: A498 renal
SF-268 CNS = tested on: SF-268 CNS
RXF 393 renal = tested on: RXF 393 renal
HCT-116 colon = tested on: HCT-116 colon
HOP-92 NSCLC = tested on: HOP-92 NSCLC
NCI-H460 lung = tested on: NCI-H460 lung
UACC-62 melanoma = tested on: UACC-62 melanoma
MOLT-4 leukemia = tested on: MOLT-4 leukemia
OVCAR-5 ovarian = tested on: OVCAR-5 ovarian
HT29 colon = tested on: HT29 colon
MCF7 breast = tested on: MCF7 breast
SNB-19 CNS = tested on: SNB-19 CNS
T-47D breast = tested on: T-47D breast
CAKI-1 renal = tested on: CAKI-1 renal
NCI/ADR-RES ovarian = tested on: NCI/ADR-RES ovarian
A549 NSCLC = tested on: A549 NSCLC
786-0 renal = tested on: 786-0 renal
MDA-MB-231 breast = tested on: MDA-MB-231 breast
MDA-MB-435 = tested on: MDA-MB-435
SF-539 CNS = tested on: SF-539 CNS

In the case of O=[N+]([O-])CC(SCc1ccccc1)c1ccc2c(c1)OCO2 (stereo unspecified), the TGI (OVCAR-8 ovarian) is reported as 19.2 µM, the TGI (KM12 colon) is reported as 19.1 µM and the TGI (EKVX NSCLC) is reported as 39.5 µM. For the same compound, the TGI (IGROV1 ovarian) was 12.7 µM, the TGI (MALME-3M melanoma) was 30.1 µM and the TGI (SK-MEL-5 melanoma) was 25 µM. The TGI (LOX IMVI melanoma) was 3.39 µM, the TGI (HCT-15 colon) was 15.9 µM and the TGI (NCI-H522 lung) was 28.3 µM. The TGI (HCC-2998 colon) was 10.5 µM, the TGI (HL-60(TB) leukemia) was 3.68 µM and the TGI (SN12C renal) was 25.7 µM. The TGI (U251 CNS) was 18.7 µM, the TGI (MDA-N) was 9.63 µM and the TGI (SK-MEL-2 melanoma) was 39.3 µM. It also gave a TGI (DU-145 prostate) of 30 µM, a TGI (UACC-257 melanoma) of 16 µM and a TGI (COLO 205 colon) of 21.1 µM. For the same compound, the TGI (M14 melanoma) was 13.1 µM, the TGI (OVCAR-4 ovarian) was 27.1 µM and the TGI (NCI-H23 lung) was 17.5 µM. For the same compound, the TGI (CCRF-CEM leukemia) was 8.74 µM, the TGI (OVCAR-3 ovarian) was 18.3 µM and the TGI (ACHN renal) was 28.3 µM. For the same compound, the TGI (HOP-62 NSCLC) was 33 µM, the TGI (NCI-H226 lung) was 23.2 µM and the TGI (SNB-75 CNS) was 30.6 µM. For the same compound, the TGI (K-562 leukemia) was 4.19 µM, the TGI (HS 578T breast) was 18.2 µM and the TGI (SR leukemia) was 8.51 µM. For the same compound, the TGI (SK-OV-3 ovarian) was 28.6 µM, the TGI (SW-620 colon) was 15.4 µM and the TGI (RPMI-8226 leukemia) was 4.03 µM. For the same compound, the TGI (SK-MEL-28 melanoma) was 17 µM, the TGI (PC-3 prostate) was 33.1 µM and the TGI (TK-10 renal) was 25.2 µM. For the same compound, the TGI (SF-295 CNS) was 23.1 µM, the TGI (UO-31 renal) was 22.2 µM and the TGI (A498 renal) was 18.8 µM. It also gave a TGI (SF-268 CNS) of over 61.2 µM, a TGI (RXF 393 renal) of 3.63 µM and a TGI (HCT-116 colon) of 4.46 µM. For the same compound, the TGI (HOP-92 NSCLC) was 21 µM, the TGI (NCI-H460 lung) was 37.9 µM and the TGI (UACC-62 melanoma) was 25.2 µM. For the same compound, the TGI (MOLT-4 leukemia) was 21.1 µM, the TGI (OVCAR-5 ovarian) was 30.2 µM and the TGI (HT29 colon) was 7.64 µM. It also gave a TGI (MCF7 breast) of 9.73 µM, a TGI (SNB-19 CNS) of 28 µM and a TGI (T-47D breast) of 47.7 µM. The TGI (CAKI-1 renal) was 28.6 µM, the TGI (NCI/ADR-RES ovarian) was 28.8 µM and the TGI (A549 NSCLC) was 21.8 µM. For the same compound, the TGI (786-0 renal) was 3.42 µM, the TGI (MDA-MB-231 breast) was 25.6 µM and the TGI (MDA-MB-435) was 7.93 µM. It also gave a TGI (SF-539 CNS) of 10.9 µM.

For C/C=C(/C)C(=O)O[C@@H]1c2c(C)coc2C[C@H]2CC[C@H](O)[C@H](C)[C@]21C, the TGI (OVCAR-8 ovarian) was over 100 µM, the TGI (KM12 colon) was over 100 µM and the TGI (EKVX NSCLC) was over 100 µM. The TGI (IGROV1 ovarian) was over 100 µM, the TGI (MALME-3M melanoma) was 77.9 µM and the TGI (SK-MEL-5 melanoma) was over 100 µM. It also gave a TGI (LOX IMVI melanoma) of over 100 µM, a TGI (HCT-15 colon) of over 100 µM and a TGI (NCI-H522 lung) of over 100 µM. For the same compound, the TGI (HCC-2998 colon) was over 100 µM, the TGI (HL-60(TB) leukemia) was 87 µM and the TGI (SN12C renal) was over 100 µM. The TGI (U251 CNS) was over 100 µM, the TGI (MDA-N) was over 100 µM and the TGI (DU-145 prostate) was over 100 µM. For the same compound, the TGI (UACC-257 melanoma) was over 100 µM, the TGI (COLO 205 colon) was over 100 µM and the TGI (M14 melanoma) was over 100 µM. The TGI (OVCAR-4 ovarian) was over 100 µM, the TGI (NCI-H23 lung) was over 100 µM and the TGI (CCRF-CEM leukemia) was over 100 µM. For the same compound, the TGI (OVCAR-3 ovarian) was 70.6 µM, the TGI (ACHN renal) was over 100 µM and the TGI (HOP-62 NSCLC) was over 100 µM. It also gave a TGI (NCI-H226 lung) of over 100 µM, a TGI (K-562 leukemia) of over 100 µM and a TGI (HS 578T breast) of over 100 µM. It also gave a TGI (SR leukemia) of over 100 µM, a TGI (SK-OV-3 ovarian) of over 100 µM and a TGI (SW-620 colon) of over 100 µM. It also gave a TGI (RPMI-8226 leukemia) of over 100 µM, a TGI (SK-MEL-28 melanoma) of over 100 µM and a TGI (PC-3 prostate) of over 100 µM. It also gave a TGI (TK-10 renal) of over 100 µM, a TGI (SF-295 CNS) of over 100 µM and a TGI (UO-31 renal) of over 100 µM. It also gave a TGI (SF-268 CNS) of over 100 µM, a TGI (RXF 393 renal) of 78.2 µM and a TGI (HCT-116 colon) of over 100 µM. For the same compound, the TGI (HOP-92 NSCLC) was over 100 µM, the TGI (NCI-H460 lung) was over 100 µM and the TGI (UACC-62 melanoma) was over 100 µM. It also gave a TGI (MOLT-4 leukemia) of over 100 µM, a TGI (OVCAR-5 ovarian) of over 100 µM and a TGI (HT29 colon) of over 100 µM. It also gave a TGI (MCF7 breast) of 87.8 µM, a TGI (SNB-19 CNS) of over 100 µM and a TGI (T-47D breast) of over 100 µM. For the same compound, the TGI (CAKI-1 renal) was over 100 µM, the TGI (NCI/ADR-RES ovarian) was 55.9 µM and the TGI (MDA-MB-231 breast) was over 100 µM. It also gave a TGI (MDA-MB-435) of over 100 µM and a TGI (SF-539 CNS) of 87 µM.
